Measurements: the supplement of paper PMC10307832

Legend:
Experiment in all cases: relative viability (nuclei count vs DMSO), 5 days (fraction); higher = more cells survive
[1] = system: NCI-H650
How it was run: (§1)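 Relative viability divides the nuclei count in treated wells by that in vehicle wells. Lung cancer cell lines were seeded in 1536-well plates, dosed by pin tool the next day, and fixed and stained after 5 days in one step with final 0.05% Triton X-100, 1% formaldehyde and 1 ug/ml Hoechst. Dosing was a single drug or a fixed anchor-drug dose plus five library-drug doses (not always all listed) in √10 steps, and values are medians of duplicate plates imaged at 4×.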

[2] = system: LU99A
How it was run: as §1

[3] = system: NCI-H2170
How it was run: as §1

[4] = system: 201T
How it was run: as §1

[5] = system: NCI-H2087
How it was run: as §1

[6] = system: EKVX
How it was run: as §1

[7] = system: NCI-H1437
How it was run: as §1

[8] = system: NCI-H2085
How it was run: as §1

[9] = system: HCC-827
How it was run: as §1

[10] = system: SW 1573
How it was run: as §1

[11] = system: NCI-H1975
How it was run: as §1

[12] = system: HCC-44
How it was run: as §1

[13] = system: H3255
How it was run: as §1

[14] = system: NCI-H1666
How it was run: as §1

[15] = system: EPLC-272H
How it was run: as §1

[16] = system: LCLC-97TM1
How it was run: as §1

[17] = system: NCI-H647
How it was run: as §1

[18] = system: LOU-NH91
How it was run: as §1

[19] = system: BEN
How it was run: as §1

[20] = system: COR-L 105
How it was run: as §1

[21] = system: PC-3 [JPC-3]
How it was run: as §1

COc1nc(C)cnc1NS(=O)(=O)c1cccnc1-c1ccc(-c2nnco2)cc1 [Zibotentan] + CS(=O)(=O)CCNCc1ccc(-c2ccc3ncnc(Nc4ccc(OCc5cccc(F)c5)c(Cl)c4)c3c2)o1 [Lapatinib] (partner 2 µM) was tested, and the relative viability ([1]; first compound 0.08 µM) was 0.974, the relative viability ([1]; first compound 0.253 µM) was 0.655 and the relative viability ([1]; first compound 0.8 µM) was 1. It also gave a relative viability ([1]; first compound 2.53 µM) of 0.904, a relative viability ([2]; first compound 0.08 µM) of 1.02 and a relative viability ([2]; first compound 0.253 µM) of 1.01. For the same compound, the relative viability ([2]; first compound 0.8 µM) was 1.05, the relative viability ([2]; first compound 2.53 µM) was 0.949 and the relative viability ([3]; first compound 0.08 µM) was 0.27. It also gave a relative viability ([3]; first compound 0.253 µM) of 0.264, a relative viability ([3]; first compound 0.8 µM) of 0.251 and a relative viability ([3]; first compound 2.53 µM) of 0.285. For the same compound, the relative viability ([4]; first compound 0.08 µM) was 1.03, the relative viability ([4]; first compound 0.253 µM) was 0.977 and the relative viability ([4]; first compound 0.8 µM) was 1.11. It also gave a relative viability ([4]; first compound 2.53 µM) of 1.02, a relative viability ([5]; first compound 0.08 µM) of 1.17 and a relative viability ([5]; first compound 0.253 µM) of 0.955. For the same compound, the relative viability ([5]; first compound 0.8 µM) was 1.06, the relative viability ([5]; first compound 2.53 µM) was 1.09 and the relative viability ([6]; first compound 0.08 µM) was 0.184. For the same compound, the relative viability ([6]; first compound 0.253 µM) was 0.216, the relative viability ([6]; first compound 0.8 µM) was 0.194 and the relative viability ([6]; first compound 2.53 µM) was 0.198. The relative viability ([7]; first compound 0.08 µM) was 0.73, the relative viability ([7]; first compound 0.253 µM) was 0.557 and the relative viability ([7]; first compound 0.8 µM) was 0.804. For the same compound, the relative viability ([7]; first compound 2.53 µM) was 0.827, the relative viability ([8]; first compound 0.08 µM) was 0.796 and the relative viability ([8]; first compound 0.253 µM) was 0.837. The relative viability ([8]; first compound 0.8 µM) was 0.764, the relative viability ([8]; first compound 2.53 µM) was 0.95 and the relative viability ([9]; first compound 0.08 µM) was 0.157. It also gave a relative viability ([9]; first compound 0.253 µM) of 0.191, a relative viability ([9]; first compound 0.8 µM) of 0.214 and a relative viability ([9]; first compound 2.53 µM) of 0.223. The relative viability ([10]; first compound 0.08 µM) was 1.18, the relative viability ([10]; first compound 0.253 µM) was 1.11 and the relative viability ([10]; first compound 0.8 µM) was 1.2. The relative viability ([10]; first compound 2.53 µM) was 1.14, the relative viability ([11]; first compound 0.08 µM) was 0.837 and the relative viability ([11]; first compound 0.253 µM) was 0.8. For the same compound, the relative viability ([11]; first compound 0.8 µM) was 0.781, the relative viability ([11]; first compound 2.53 µM) was 0.884 and the relative viability ([12]; first compound 0.08 µM) was 1.02. The relative viability ([12]; first compound 0.253 µM) was 1.01, the relative viability ([12]; first compound 0.8 µM) was 1.08 and the relative viability ([12]; first compound 2.53 µM) was 1.04. For the same compound, the relative viability ([13]; first compound 0.08 µM) was 0.271, the relative viability ([13]; first compound 0.253 µM) was 0.255 and the relative viability ([13]; first compound 0.8 µM) was 0.281. It also gave a relative viability ([13]; first compound 2.53 µM) of 0.239, a relative viability ([14]; first compound 0.08 µM) of 0.63 and a relative viability ([14]; first compound 0.253 µM) of 0.435. It also gave a relative viability ([14]; first compound 0.8 µM) of 0.495, a relative viability ([14]; first compound 2.53 µM) of 0.688 and a relative viability ([15]; first compound 0.08 µM) of 0.982. The relative viability ([15]; first compound 0.253 µM) was 0.894, the relative viability ([15]; first compound 0.8 µM) was 0.919 and the relative viability ([15]; first compound 2.53 µM) was 0.869. It also gave a relative viability ([16]; first compound 0.08 µM) of 1.01, a relative viability ([16]; first compound 0.253 µM) of 0.95 and a relative viability ([16]; first compound 0.8 µM) of 0.841. For the same compound, the relative viability ([16]; first compound 2.53 µM) was 0.93, the relative viability ([17]; first compound 0.08 µM) was 1.23 and the relative viability ([17]; first compound 0.253 µM) was 0.924. It also gave a relative viability ([17]; first compound 0.8 µM) of 0.968, a relative viability ([17]; first compound 2.53 µM) of 1.06 and a relative viability ([18]; first compound 0.08 µM) of 0.835. The relative viability ([18]; first compound 0.253 µM) was 0.662, the relative viability ([18]; first compound 0.8 µM) was 0.771 and the relative viability ([18]; first compound 2.53 µM) was 0.782. It also gave a relative viability ([19]; first compound 0.08 µM) of 0.762, a relative viability ([19]; first compound 0.253 µM) of 0.721 and a relative viability ([19]; first compound 0.8 µM) of 0.68. The relative viability ([19]; first compound 2.53 µM) was 0.605, the relative viability ([20]; first compound 0.08 µM) was 0.394 and the relative viability ([20]; first compound 0.253 µM) was 0.35. It also gave a relative viability ([20]; first compound 0.8 µM) of 0.394, a relative viability ([20]; first compound 2.53 µM) of 0.4 and a relative viability ([21]; first compound 0.08 µM) of 0.444. For the same compound, the relative viability ([21]; first compound 0.253 µM) was 0.458, the relative viability ([21]; first compound 0.8 µM) was 0.421 and the relative viability ([21]; first compound 2.53 µM) was 0.48.
